Reference: patent US4362743A, “Antibacterial monic acid esters” (Beecham Group Limited, priority 1980, dated 1982)
Converted amounts (≈) assume the structure as drawn. Where two headings read alike, the source gives them in different places.

Columns and labels:
Assay type in all cases: cell-based
M. suipneumoniae JF 435 = assay: Anti-mycoplasmal activity in vitro MIC; conditions: Mesomycoplasma hyopneumoniae, JF435, 144 h
M. suipneumoniae MS16 = assay: Anti-mycoplasmal activity in vitro MIC; conditions: Mesomycoplasma hyopneumoniae
[1] = test system: Corynebacterium pyogenes CY1; assay: Veterinary bacteria MIC; conditions: Trueperella pyogenes, CY1, 18 h
Method: (§1) The values were determined using a two fold serial dilutions in Diagnostic Sensitivity Test Agar with an inoculum of 10^4 organisms and incubation for 18 hours at 37° C.

Strep. agalactiae SPA1 = assay: Veterinary bacteria MIC; conditions: Streptococcus agalactiae, Diagnostic Sensitivity Test Agar, 18 hours 37° C.
Method: as §1

[2] = test system: Erysipelothrix rhusiopathiae NCTC 8163; assay: Veterinary bacteria MIC; conditions: Erysipelothrix rhusiopathiae, NCTC8163, 18 h
Method: as §1

Strep. uberis SPU1 = assay: Veterinary bacteria MIC; conditions: Streptococcus uberis, Diagnostic Sensitivity Test Agar, 18 hours 37° C.
Method: as §1

Past. haemolytica PA5 = assay: Veterinary bacteria MIC; conditions: Mannheimia haemolytica
Method: as §1

Past. multocida PA1 = assay: Veterinary bacteria MIC; conditions: Pasteurella multocida, Diagnostic Sensitivity Test Agar, 18 hours 37° C.
Method: as §1

S. dublin S7 = assay: Veterinary bacteria MIC; conditions: Salmonella enterica, S7, 18 h
Method: as §1

E. coli NCTC 10418 = assay: Veterinary bacteria MIC; conditions: Escherichia coli, NCTC10418, 18 h
Method: as §1

[3] = test system: Strep. suis (Group D) SPS11; assay: Veterinary bacteria MIC; conditions: Streptococcus suis
Method: as §1

[4] = test system: Staph. aureus 152 (pen. sens); assay: Veterinary bacteria MIC; conditions: Staphylococcus aureus, Diagnostic Sensitivity Test Agar, 18 hours 37° C.
Method: as §1

E. coli El = assay: Veterinary bacteria MIC; conditions: Escherichia coli, 18 h
Method: as §1

Past. multocida PA2 = assay: Veterinary bacteria MIC; conditions: Pasteurella multocida; Past. multocida PA2; Diagnostic Sensitivity Test Agar, 18 hours 37° C.; read-out: M.I.C.
Method: as §1

Strep. dysgalactiae SPD1 = assay: Veterinary bacteria MIC; conditions: Streptococcus dysgalactiae, Diagnostic Sensitivity Test Agar, 18 hours 37° C.
Method: as §1

[5] = test system: Staph. aureus B4 (pen. resistant); assay: Veterinary bacteria MIC; conditions: Staphylococcus aureus, Diagnostic Sensitivity Test Agar, 18 hours 37° C.
Method: as §1

Bord. bronchiseptica B08 = assay: Veterinary bacteria MIC; conditions: Bordetella bronchiseptica
Method: as §1

Bord. brochiasetpica B09 = assay: Veterinary bacteria MIC; conditions: Diagnostic Sensitivity Test Agar, 18 hours 37° C.
Method: as §1

Staph. aureus Oxford = assay: Veterinary bacteria MIC; conditions: Staphylococcus aureus, Diagnostic Sensitivity Test Agar, 18 hours 37° C.
Method: as §1

S. typhimurium S18 = assay: Veterinary bacteria MIC; conditions: Salmonella enterica, TYPHIMURIUM, 18 h
Method: as §1

M. hyorhinis ATCC 23234 = assay: Anti-mycoplasmal activity in vitro MIC; conditions: Mesomycoplasma hyorhinis, ATCC23234, 144 h
[6] = test system: Haemophilus influenzae Wy21; assay: Human bacteria MIC
Method: (§2) The values were determined by serial dilutions in nutrient agar with 5% chocolated horse blood after incubations for 18 hours at 37° C.

Sarcina lutea 8340 = assay: Human bacteria MIC; conditions: Micrococcus luteus, 8340, 18 h
Method: as §2

M. dispar NCTC 10125 = assay: Anti-mycoplasmal activity in vitro MIC; conditions: 144 h
[7] = test system: M. suipneumoniae NCTC 10110; assay: Anti-mycoplasmal activity in vitro MIC; conditions: Mesomycoplasma hyopneumoniae, NCTC10110, 144 h
M. suipneumoniae TAM 6N = assay: Anti-mycoplasmal activity in vitro MIC; conditions: Mesomycoplasma hyopneumoniae, TAM6N, 144 h
[8] = test system: M. suipneumoniae J2206/183b; assay: Anti-mycoplasmal activity in vitro MIC; conditions: Mesomycoplasma hyopneumoniae, J2206/183B, 144 h
M. pneumoniae ATCC 15492 = assay: Anti-mycoplasmal activity in vitro MIC; conditions: Mycoplasmoides pneumoniae, ATCC15492, 144 h
M. gallisepticum S6 = assay: Anti-mycoplasmal activity in vitro MIC; conditions: Mycoplasmoides gallisepticum
M. suipneumoniae Str. 11 = assay: Anti-mycoplasmal activity in vitro MIC; conditions: Mesomycoplasma hyopneumoniae, 144 h; M. suipneumoniae Str. 11; Friis broth, 0.9% agarose, 6 days 37° C.; read-out: M.I.C.
[9] = test system: M. suipneumoniae ATCC 25095; assay: Anti-mycoplasmal activity in vitro MIC; conditions: Mesomycoplasma hyopneumoniae, ATCC25095, 144 h; M. suipneumoniae ATCC 25095; Friis broth, 0.9% agarose, 6 days 37° C.; read-out: M.I.C.

Row | SMILES | MIC [1] [µg/mL] | MIC (Strep. agalactiae SPA1) [µg/mL] | MIC [2] [µg/mL] | MIC (Strep. uberis SPU1) [µg/mL] | MIC (Past. multocida PA1) [µg/mL] | MIC (S. dublin S7) [µg/mL] | MIC (E. coli NCTC 10418) [µg/mL] | MIC [4] [µg/mL] | MIC (E. coli El) [µg/mL] | MIC (Past. multocida PA2) [µg/mL] | MIC (Strep. dysgalactiae SPD1) [µg/mL] | MIC [5] [µg/mL] | MIC (Bord. brochiasetpica B09) [µg/mL] | MIC (Staph. aureus Oxford) [µg/mL] | MIC (S. typhimurium S18) [µg/mL] | MIC (M. hyorhinis ATCC 23234) [µg/mL] | MIC (Sarcina lutea 8340) [µg/mL] | MIC (M. dispar NCTC 10125) [µg/mL] | MIC (M. suipneumoniae TAM 6N) [µg/mL] | MIC [8] [µg/mL] | further results
1 | C/C(=C\C(=O)OCCCCCC=NN(C)C)C[C@@H]1OC[C@H](C[C@@H]2O[C@H]2[C@@H](C)[C@H](C)O)[C@@H](O)[C@H]1O [Example 6, 6-Dimethylhydrazonohexyl monate A] | > 80 | 1.25 (≈ 2.58 µM) | 80 (≈ 165 µM) | 0.312 (≈ 0.644 µM) | 2.5 (≈ 5.16 µM) | > 80 | > 80 | 0.07 (≈ 0.144 µM) | > 80 | 0.312 (≈ 0.644 µM) | 0.07 (≈ 0.144 µM) | 0.07 (≈ 0.144 µM) | 2.5 (≈ 5.16 µM) | 0.07 (≈ 0.144 µM) | > 80 | 0.25 (≈ 0.516 µM) | > 100 | 0.25 (≈ 0.516 µM) | 1 (≈ 2.06 µM) | 1 (≈ 2.06 µM) | MIC (M. suipneumoniae JF 435; M. suipneumoniae JF 435, Friis broth, 0.9% agarose, 6 days 37° C., read-out: M.I.C.): 0.5 µg/mL (≈ 1.03 µM); MIC (M. suipneumoniae MS16; MS16, 144 h): 0.25 µg/mL (≈ 0.516 µM); MIC (Past. haemolytica PA5; Past. haemolytica PA5, Diagnostic Sensitivity Test Agar, 18 hours 37° C., read-out: M.I.C.): 10 µg/mL (≈ 20.6 µM); MIC ([3]; 18 h): 20 µg/mL (≈ 41.3 µM); MIC (Bord. bronchiseptica B08; B08, 18 h): 5 µg/mL (≈ 10.3 µM); MIC ([6]; Haemophilus influenzae, WY21, 18 h): 0.5 µg/mL (≈ 1.03 µM); MIC ([7]; M. suipneumoniae NCTC 10110, Friis broth, 0.9% agarose, 6 days 37° C., read-out: M.I.C.): 0.5 µg/mL (≈ 1.03 µM); MIC (M. pneumoniae ATCC 15492): 2.5 µg/mL (≈ 5.16 µM); MIC (M. gallisepticum S6; S6, 144 h): 5 µg/mL (≈ 10.3 µM); MIC (M. suipneumoniae Str. 11): 0.5 µg/mL (≈ 1.03 µM); MIC [9]: 0.5 µg/mL (≈ 1.03 µM)
2 | C/C(=C\C(=O)OCc1ccc(C=NO)o1)C[C@@H]1OC[C@H](C[C@@H]2O[C@H]2[C@@H](C)[C@H](C)O)[C@@H](O)[C@H]1O [Example 7, 5-Hydroxyiminomethylfurfuryl monate A] | > 80 | 1.25 (≈ 2.67 µM) | > 80 | 0.625 (≈ 1.34 µM) | 0.625 (≈ 1.34 µM) | > 80 | > 80 | 1.25 (≈ 2.67 µM) | > 80 | 0.625 (≈ 1.34 µM) | 0.625 (≈ 1.34 µM) | 1.25 (≈ 2.67 µM) | 2.5 (≈ 5.35 µM) | 1.25 (≈ 2.67 µM) | > 80 | 0.5 (≈ 1.07 µM) | > 100 | 0.1 (≈ 0.214 µM) | 1 (≈ 2.14 µM) | 1 (≈ 2.14 µM) | MIC (M. suipneumoniae JF 435): 1 µg/mL (≈ 2.14 µM); MIC (M. suipneumoniae MS16; 144 h, M. suipneumoniae MS16, Friis broth, 0.9% agarose, 6 days 37° C., read-out: M.I.C.): 0.5 µg/mL (≈ 1.07 µM); MIC (Past. haemolytica PA5; PA5, 18 h): 5 µg/mL (≈ 10.7 µM); MIC ([3]; Strep. suis (Group D) SPS11, Diagnostic Sensitivity Test Agar, 18 hours 37° C., read-out: M.I.C.): 20 µg/mL (≈ 42.8 µM); MIC (Bord. bronchiseptica B08; Bord. bronchiseptica B08, Diagnostic Sensitivity Test Agar, 18 hours 37° C., read-out: M.I.C.): > 80 µg/mL; MIC ([6]; Haemophilus influenzae Wy21, nutrient agar, 5% chocolated horse blood, 18 hours 37° C., read-out: M.I.C.): 0.25 µg/mL (≈ 0.535 µM); MIC [7]: 1 µg/mL (≈ 2.14 µM); MIC (M. gallisepticum S6; 144 h, M. gallisepticum S6, Friis broth, 0.9% agarose, 6 days 37° C., read-out: M.I.C.): 5 µg/mL (≈ 10.7 µM); MIC (M. suipneumoniae Str. 11): 0.5 µg/mL (≈ 1.07 µM); MIC [9]: 0.5 µg/mL (≈ 1.07 µM)
